# Measurements: PubChem BioAssay AID2060610 (Molecular Pharmacology Branch, DTP, NCI, 2025)
# System: 616215-338-R-J1-PDC complex spheroids, viability % test/control
# Assay: Anticancer human tumor 616215-338-R-J1-PDC patient-derived colon adenocarcinoma cell line growth inhibition [CLK]
# Settings: for IC50: curve of first compound; for viability, T/C: stronger effect = lower value
# In short: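 Patient-derived tumor cells grown as complex spheroids with HUVEC endothelial cells and mesenchymal stem cells, treated with drug combinations. Concentrations descend in half-log steps from near clinical Cmax, or from 10 microM if Cmax unknown.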
# [1] = second compound 0.0316 µM, first compound 0.00949 µM
# [2] = second compound 0.0316 µM, first compound 0.03 µM
# [3] = second compound 0.0316 µM, first compound 0.0949 µM
# [4] = second compound 0.0316 µM, first compound 0.3 µM
# [5] = second compound 0.1 µM, first compound 0.00949 µM
# [6] = second compound 0.1 µM, first compound 0.03 µM
# [7] = second compound 0.1 µM, first compound 0.0949 µM
# [8] = second compound 0.1 µM, first compound 0.3 µM
# [9] = second compound 0.316 µM, first compound 0.00949 µM
# [10] = second compound 0.316 µM, first compound 0.03 µM
# [11] = second compound 0.316 µM, first compound 0.0949 µM
# [12] = second compound 0.316 µM, first compound 0.3 µM
# [13] = second compound 1 µM, first compound 0.00949 µM
# [14] = second compound 1 µM, first compound 0.03 µM
# [15] = second compound 1 µM, first compound 0.0949 µM
# [16] = second compound 1 µM, first compound 0.3 µM
# [17] = second compound 3.16 µM, first compound 0.00949 µM
# [18] = second compound 3.16 µM, first compound 0.03 µM
# [19] = second compound 3.16 µM, first compound 0.0949 µM
# [20] = second compound 3.16 µM, first compound 0.3 µM
# [21] = second compound 10 µM, first compound 0.00949 µM
# [22] = second compound 10 µM, first compound 0.03 µM
# [23] = second compound 10 µM, first compound 0.0949 µM
# [24] = second compound 10 µM, first compound 0.3 µM
# 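Also: spheroids exposed to agents for 7 days.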
# 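For viability, T/C in this document: 100% = DMSO vehicle wells.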
structure (smiles),measurement,setting,value
C=CC(=O)Nc1cc(Nc2nccc(-c3cn(C)c4ccccc34)n2)c(OC)cc1N(C)CCN(C)C + CNC(=O)c1ccc(Nc2nc(OC3CCCC3)c3c(-c4ccc5nc(C)oc5c4)c[nH]c3n2)c(OC)c1,IC50,second compound 0.0316 µM,> 300 nM
same,IC50,second compound 0.1 µM,2.07 nM
same,IC50,second compound 0.316 µM,< 0.949 nM
same,IC50,second compound 1 µM,< 0.949 nM
same,IC50,second compound 3.16 µM,< 0.949 nM
same,IC50,second compound 10 µM,< 0.949 nM
same,"viability, T/C","second compound 0.0316 µM, first compound 0.000949 µM",94.3%
same,"viability, T/C","second compound 0.0316 µM, first compound 0.003 µM",87.8%
same,"viability, T/C",[1],90.3%
same,"viability, T/C",[2],89.4%
same,"viability, T/C",[3],98.7%
same,"viability, T/C",[4],95.8%
same,"viability, T/C","second compound 0.1 µM, first compound 0.000949 µM",52.1%
same,"viability, T/C","second compound 0.1 µM, first compound 0.003 µM",51.2%
same,"viability, T/C",[5],42.3%
same,"viability, T/C",[6],36.6%
same,"viability, T/C",[7],40.9%
same,"viability, T/C",[8],28.5%
same,"viability, T/C","second compound 0.316 µM, first compound 0.000949 µM",43.9%
same,"viability, T/C","second compound 0.316 µM, first compound 0.003 µM",37.9%
same,"viability, T/C",[9],39.2%
same,"viability, T/C",[10],36.7%
same,"viability, T/C",[11],31.6%
same,"viability, T/C",[12],25.8%
same,"viability, T/C","second compound 1 µM, first compound 0.000949 µM",43.6%
same,"viability, T/C","second compound 1 µM, first compound 0.003 µM",41.9%
same,"viability, T/C",[13],39.7%
same,"viability, T/C",[14],39%
same,"viability, T/C",[15],31.8%
same,"viability, T/C",[16],24.4%
same,"viability, T/C","second compound 3.16 µM, first compound 0.000949 µM",39.3%
same,"viability, T/C","second compound 3.16 µM, first compound 0.003 µM",42.8%
same,"viability, T/C",[17],41%
same,"viability, T/C",[18],34.3%
same,"viability, T/C",[19],28%
same,"viability, T/C",[20],20.1%
same,"viability, T/C","second compound 10 µM, first compound 0.000949 µM",40.1%
same,"viability, T/C","second compound 10 µM, first compound 0.003 µM",40.7%
same,"viability, T/C",[21],33.8%
same,"viability, T/C",[22],28.8%
same,"viability, T/C",[23],25.8%
same,"viability, T/C",[24],22.7%
NC(=O)C(=Cn1cnc(-c2cc(C(F)(F)F)cc(C(F)(F)F)c2)n1)c1cncnc1 + CNC(=O)c1ccc(Nc2nc(OC3CCCC3)c3c(-c4ccc5nc(C)oc5c4)c[nH]c3n2)c(OC)c1,IC50,second compound 0.0316 µM,651 nM
same,IC50,second compound 0.1 µM,< 9.49 nM
same,IC50,second compound 0.316 µM,< 9.49 nM
same,IC50,second compound 1 µM,< 9.49 nM
same,IC50,second compound 3.16 µM,< 9.49 nM
same,IC50,second compound 10 µM,< 9.49 nM
same,"viability, T/C",[1],84.9%
same,"viability, T/C",[2],95.5%
same,"viability, T/C",[3],96%
same,"viability, T/C",[4],77.6%
same,"viability, T/C","second compound 0.0316 µM, first compound 0.949 µM",36.6%
same,"viability, T/C","second compound 0.0316 µM, first compound 3 µM",18.4%
same,"viability, T/C",[5],45.4%
same,"viability, T/C",[6],48.2%
same,"viability, T/C",[7],34.1%
same,"viability, T/C",[8],33.1%
same,"viability, T/C","second compound 0.1 µM, first compound 0.949 µM",32.5%
same,"viability, T/C","second compound 0.1 µM, first compound 3 µM",15.8%
same,"viability, T/C",[9],34%
same,"viability, T/C",[10],30.4%
same,"viability, T/C",[11],29.7%
same,"viability, T/C",[12],25.4%
same,"viability, T/C","second compound 0.316 µM, first compound 0.949 µM",29.3%
same,"viability, T/C","second compound 0.316 µM, first compound 3 µM",12.8%
same,"viability, T/C",[13],34.5%
same,"viability, T/C",[14],33.4%
same,"viability, T/C",[15],30.5%
same,"viability, T/C",[16],26.9%
same,"viability, T/C","second compound 1 µM, first compound 0.949 µM",18.3%
same,"viability, T/C","second compound 1 µM, first compound 3 µM",7.01%
same,"viability, T/C",[17],33.5%
same,"viability, T/C",[18],35%
same,"viability, T/C",[19],27.7%
same,"viability, T/C",[20],23.3%
same,"viability, T/C","second compound 3.16 µM, first compound 0.949 µM",13.1%
same,"viability, T/C","second compound 3.16 µM, first compound 3 µM",4.39%
same,"viability, T/C",[21],31.3%
same,"viability, T/C",[22],28.5%
same,"viability, T/C",[23],28.9%
same,"viability, T/C",[24],19.7%
same,"viability, T/C","second compound 10 µM, first compound 0.949 µM",10.8%
same,"viability, T/C","second compound 10 µM, first compound 3 µM",2.88%
Nc1ccccc1NC(=O)c1ccc(CNC(=O)OCc2cccnc2)cc1 + CNC(=O)c1ccc(Nc2nc(OC3CCCC3)c3c(-c4ccc5nc(C)oc5c4)c[nH]c3n2)c(OC)c1,IC50,second compound 0.0316 µM,5080 nM
same,IC50,second compound 0.1 µM,85 nM
same,IC50,second compound 0.316 µM,< 31.6 nM
same,IC50,second compound 1 µM,< 31.6 nM
same,IC50,second compound 3.16 µM,< 31.6 nM
same,IC50,second compound 10 µM,< 31.6 nM
same,"viability, T/C","second compound 0.0316 µM, first compound 0.0316 µM",86.2%
same,"viability, T/C","second compound 0.0316 µM, first compound 0.1 µM",82%
same,"viability, T/C","second compound 0.0316 µM, first compound 0.316 µM",80.2%
same,"viability, T/C","second compound 0.0316 µM, first compound 1 µM",96.7%
same,"viability, T/C","second compound 0.0316 µM, first compound 3.16 µM",72.5%
same,"viability, T/C","second compound 0.0316 µM, first compound 10 µM",17.7%
same,"viability, T/C","second compound 0.1 µM, first compound 0.0316 µM",56.1%
same,"viability, T/C","second compound 0.1 µM, first compound 0.1 µM",48.9%
same,"viability, T/C","second compound 0.1 µM, first compound 0.316 µM",37.3%
same,"viability, T/C","second compound 0.1 µM, first compound 1 µM",36.1%
same,"viability, T/C","second compound 0.1 µM, first compound 3.16 µM",36.7%
same,"viability, T/C","second compound 0.1 µM, first compound 10 µM",10.6%
same,"viability, T/C","second compound 0.316 µM, first compound 0.0316 µM",40.7%
same,"viability, T/C","second compound 0.316 µM, first compound 0.1 µM",39.4%
same,"viability, T/C","second compound 0.316 µM, first compound 0.316 µM",35.9%
same,"viability, T/C","second compound 0.316 µM, first compound 1 µM",34%
same,"viability, T/C","second compound 0.316 µM, first compound 3.16 µM",29.3%
same,"viability, T/C","second compound 0.316 µM, first compound 10 µM",7.21%
same,"viability, T/C","second compound 1 µM, first compound 0.0316 µM",42.7%
same,"viability, T/C","second compound 1 µM, first compound 0.1 µM",36.7%
same,"viability, T/C","second compound 1 µM, first compound 0.316 µM",32.8%
same,"viability, T/C","second compound 1 µM, first compound 1 µM",29.1%
same,"viability, T/C","second compound 1 µM, first compound 3.16 µM",24.8%
same,"viability, T/C","second compound 1 µM, first compound 10 µM",6.92%
same,"viability, T/C","second compound 3.16 µM, first compound 0.0316 µM",35.1%
same,"viability, T/C","second compound 3.16 µM, first compound 0.1 µM",35.8%
same,"viability, T/C","second compound 3.16 µM, first compound 0.316 µM",28.5%
same,"viability, T/C","second compound 3.16 µM, first compound 1 µM",26.9%
same,"viability, T/C","second compound 3.16 µM, first compound 3.16 µM",22.7%
same,"viability, T/C","second compound 3.16 µM, first compound 10 µM",3.91%
same,"viability, T/C","second compound 10 µM, first compound 0.0316 µM",34.3%
same,"viability, T/C","second compound 10 µM, first compound 0.1 µM",30.8%
same,"viability, T/C","second compound 10 µM, first compound 0.316 µM",28%
same,"viability, T/C","second compound 10 µM, first compound 1 µM",24%
same,"viability, T/C","second compound 10 µM, first compound 3.16 µM",23.8%
same,"viability, T/C","second compound 10 µM, first compound 10 µM",3.95%
